Entries after “also recorded” stand apart in the source; their conditions may differ.
Tests used:
[1] = system: METTL3 (m^6A methylation of the GEMS reporter mRNA), HEK293T cells; test: GEMS EGFP fluorescence microscopy / quantitative microscopy in HEK293T cells; format: cell-based, human
Experimental: Plasmid Transfection. Transfections were performed using Fugene HD (Promega) according to the manufacturer's instructions. For METTL3 inhibition experiments, cells were treated with 10 μM or 30 μM of STM2457 (MedChemExpress) for 16 hours prior to transfection. Cells were treated with 0.1% DMSO (VWR Life Science) as a control. For experiments using METTL3 degron cells, 0.1 mg/mL of auxin or equivalent volume of H2O (control) was added to the cells for 24 hours prior to plasmid transfection.
Microscopy. All images were obtained using a Leica DMi8 inverted fluorescence microscope. Images were processed using the Leica LAS X software. 4-5 fields of view were obtained per sample, and representative images were selected for each experiment.
Quantitative Microscopy. HEK293T cells were plated in 10 cm cell culture-treated dishes at a density of 2.2×10^6 cells per plate and allowed to grow overnight. Cells were then treated with 30 μM of STM2457 or DMSO control for 16 hours. Cells were then transfected with the GEMS-PEST-DsRed plasmid and allowed to grow for an additional 16 hours. Prior to imaging, media was replaced with 1×PBS with 1 μg/mL Hoechst nuclear fluorescent stain (ThermoFisher Scientific) for 30 minutes. Cells were imaged using a Leica DMi8 fluorescence microscope. Images were analyzed by ImageJ image analysis software. First, fluorescence channels were separated and RGB fluorescence channels were converted to grayscale (16-bit). Binary image thresholds were set in relation to DsRed fluorescence signal and background noise was subtracted. Individual cells were selected, and pixel intensities were generated of each individual cell within the field of view. Similar binary image thresholding, cell selection, and intensity datasets were generated for the EGFP image channel. Data were analyzed by dividing EGFP signal intensity for each cell by average DsRed signal intensity. Data were plotted in JMP software (IMP 17.0, SAS Institute Inc.) by normalized EGFP signal intensity for each treatment. Boxplots represent interquartile range of the data and whiskers represent minimum and maximum data points excluding outliers. Statistical significance was calculated using a two-way t-test assuming unequal variance.

[2] = system: METTL3 (m^6A methylation of the GEMS reporter mRNA), HEK293T cells; test: Western blot and densitometry (EGFP, EGFP-DHFR) in HEK293T cells expressing GEMS; format: cell-based, human
Experimental: Western blotting. Cells were dissociated in culture plates using TrypLE (Gibco) and collected by centrifugation (6,000 rpm, 10 minutes, 4° C.). Cell pellets were resuspended in 150 μL chilled standard RIPA buffer (1% Triton X-100, 0.1% Sodium Deoxycholate, 0.1% SDS) prepared with the addition of Complete Mini protease inhibitor (Sigma Aldrich) immediately before use. Cells were resuspended and incubated on ice in RIPA buffer for 30 minutes. Cell lysates were cleared by centrifugation (13,000 rpm, 10 minutes, 4° C.) and mixed in a 1:1 ratio with NuPage LDS sample buffer (Invitrogen) with 5% Beta-Mercaptoethanol (Sigma). Samples were separated by gel electrophoresis on NuPage 4-12% Bis-Tris SDS-PAGE gels (Invitrogen), then transferred onto PVDF membranes (Amersham) using semi-dry transfer (Trans-Blot Turbo, Biorad). Membranes were blocked with 4% milk powder in 0.1% PBST and incubated with the appropriate primary antibody overnight at 4° C. Membranes were then washed with 0.1% PBST and incubated for 1 hour at room temperature in secondary antibody. Blots were washed and incubated in chemiluminescent ECL reagent solution (Amersham) then imaged in a ChemiDoc MP imaging system (BioRad) under chemiluminescent and colorimetric light. In western blot images, cyclophilin A is shown as a loading control and all western blots are representative of a minimum of 3 independent biological replicates. The following antibodies were used in this study: GFP tag Polyclonal antibody (Proteintech, 50430-2-AP). Anti-HA rabbit monoclonal antibody (Cell Signaling, 3724). Anti-Cyclophilin A antibody (Cell Signaling, 2175S). Anti-DsRed-Express2 Monoclonal Antibody (Fisher Scientific, CF180014). Anti-METTL3 antibody (abcam, ab195352). Anti-SOCS2 antibody (abcam, ab109245). Anti-p53 (7F5) Rabbit monoclonal antibody (Cell Signaling, 2527S). Recombinant Anti-JAK2 Antibody (abcam, ab108596). Recombinant Anti-STAT5 (phosphorylated Y694) (abcam, ab32364). Anti-STAT5 antibody (Cell Signaling, 25656S). Secondary antibodies used in this study: Goat Anti-Rabbit IgG HRP (Abcam, ab6721), Goat anti-mouse IgG HRP (Fisher Scientific, 62-6520).
For densitometry analysis, western blot images were quantified using ImageJ software 58. EGFP band intensity was normalized to either EGFP-DHFR or (EGFP+EGFP-DHFR) as indicated in each experiment. Similar densitometry analysis was used to measure total protein production (EGFP+EGFP-DHFR), normalized to the Cyclophilin A loading control. At least two replicates were used for each western blot quantification analysis. Bars are plotted as mean intensity ratio and error bars represent standard deviation.

m^6A sensor sequence = test: RT-PCR/Sanger sequencing of C-to-U editing of the m^6A sensor sequence in HEK293T cells; format: cell-based, human
Experimental: (§1) Sanger sequencing and RT-qPCR. Cells were dissociated in culture using TrypLE (Gibco) treatment for 2 minutes and collected by centrifugation (6,000 rpm, 10 minutes, 4° C.). RNA was extracted using the RNA easy Plus Mini kit (Qiagen) according to the manufacturer's protocol. Extracted RNA was purified for genomic and plasmid DNA contamination by incubation with 1 μL DNase I at 37° C. for 30 minutes, and purified RNA was precipitated in 2.5 volumes of isopropanol overnight. RNA quantification was performed using the Qubit 4.0 fluorometer following the Qubit RNA broad range assay kit (Invitrogen). 500 ng of RNA was used for reverse transcription with the iScript reverse transcription supermix (Biorad) following the manufacturer's protocol. PCR was then used to […] amplify the region of interest in the m^6A sensor mRNA sequence (see Table 2). PCR products were column purified before Sanger sequencing using QiaQuick spin columns (Qiagen) and 10 μL reactions were submitted for standard amplicon sequencing (Azenta Life Sciences). C-to-U editing percentage was calculated using the EditR web server 59. To measure gene expression using gene-specific oligos, qPCR was performed using iTaq universal SYBR green Supermix (Biorad). 20 μL reactions were set up with 1 μL of cDNA for each sample, in 3 technical replicates. qPCR was performed on a Biorad CFX Duet real-time PCR instrument, and results were analyzed by normalizing threshold cycle of each target gene to 18S rRNA according to established methods^60. At least 2 biological replicates were used for each sample, and results are plotted as mean relative fold expression comparing treatment to the control group as indicated. Error bars represent standard deviation, and statistical significance was calculated using a two-way t-test assuming unequal variance.

[3] = system: m^6A sensor sequence and endogenous ACTB A1222; test: RT-qPCR-based m^6A quantification in HEK293T cells; format: cell-based, human; details: METTL3 degron cells, auxin (FIG. 3F)
Experimental: m^6A detection using RT-qPCR. RNA was extracted and treated with DNase I as described above, and a relative quantification of m^6A by RT-qPCR was adapted from^28. 4 reverse transcription reactions were set up using 150 ng of RNA for each: 2 reactions using BstI polymerase (NEB), and 2 reactions using Superscript reverse transcriptase enzyme (Fisher Scientific). For each reverse transcriptase, one reaction included a primer adjacent (+) to the site being tested (reverse compliment reverse oligo immediately downstream of the site), and the other reaction included a primer that is non-adjacent (−) to the site. The BstI reaction consisted of 10 U BstI polymerase, […], 500 nM oligos (adjacent (+) or non-adjacent (−)), in 1× ThermoPol Buffer. Reactions were incubated in a thermal cycler with the following cycling settings: 3 minutes at 25° C., 30 minutes at 50° C., and 3 minutes at 85° C. Superscript III (SSIII) reactions consisted of 200 U Superscript III, […], 25 mM MgCl2+, 10 mM dNTPs, 500 nM oligos (adjacent or non-adjacent), 2 μL 10× FS Buffer, and water up to 20 μL. […] Threshold cycle values were obtained and relative m^6A was calculated using the formula: 2−(CT Bst(−)−Ct SSIII(−)/Ct Bst(+)−Ct SSIII(+)). […] Error bars represent standard deviation, and statistical significance was calculated using a two-way t-test assuming unequal variance.

[4] = system: m^6A in cellular mRNA, HEK293T cells; test: Mass spectrometry of m^6A in purified mRNA; format: cell-based, human
Experimental: Mass spectrometry analysis. Total RNA was extracted as described above, and mRNA was purified using two rounds of oligo(dT) purification with Dynabeads oligo-(dT) mRNA purification kit (Invitrogen), followed by 2 rounds of rRNA depletion using NEBNext rRNA Depletion Kit (V2.0, NEB), and an additional two rounds of oligo(dT) purification with Dynabeads oligo-(dT) mRNA purification kit (Invitrogen). All mRNA purification steps were performed following the manufacturer's instructions. Purified mRNA quality was checked using a Bioanalyzer high sensitivity RNA analysis 6000 pico kit (Agilent). For mass spectrometry analysis, 100-200 ng of purified mRNA was incubated with 2 U of Nuclease P1 (Sigma) with 2.5 mM ZnCl and 25 mM NaCl at 37° C. for 2 hours. mRNA samples were treated with 5 U of antarctic phosphatase (NEB) for 2 h at 37° C. Samples were then processed using the Xevo TQ-S mass spectrometry system. All nucleosides were quantified by retention time and ion mass transitions of 268.2 to 133.2 (A) and 282.2 to 150.1 (m^6A). Data were plotted as a percentage of m^6A relative to A. At least 2 biological replicates were performed for each sample.

m^6A reporter mRNA = test: RT-qPCR of m^6A reporter mRNA abundance in HEK293T cells; format: cell-based, human
Experimental: as §1

Huh-7 cells = test: RT-qPCR gene expression in Huh-7 cells; format: cell-based, human; details: increasing amounts of STM2457 (FIG. 9C)
Experimental: as §1, with “PCR products were column purified before Sanger sequencing using QiaQuick spin columns (Qiagen) and 10 μL reactions were submitted for standard amplicon sequencing (Azenta Life Sciences).” left out, “To measure gene expression using gene-specific oligos, qPCR was performed using iTaq universal SYBR green Supermix (Biorad).” left out, “At least 2 biological replicates were used for each sample, and results are plotted as mean relative fold expression comparing treatment to the control group as indicated.” left out

MOLM-13 cells = details: AML cell line with high levels of METTL3; cited from earlier work

For `O=C(O)Cc1c[nH]c2ccccc12` [auxin], the “EGFP fluorescence from the GEMS system” value ([1]; HEK293T METTL3 degron cells, auxin (FIG. 3B)) was “reduced EGFP fluorescence”, the “total reporter mRNA protein production (EGFP+EGFP-DHFR) relative to cyclophilin A” value ([2]; METTL3 degron cells expressing GEMS (FIG. 3H)) was “no significant difference” and the “METTL3 and EGFP protein, western blot” value ([2]; METTL3 degron cells, auxin (FIG. 3C)) was “loss of METTL3 and EGFP”. For the same molecule, the EGFP/EGFP-DHFR ratio ([2]; METTL3 degron cells, auxin (FIG. 3D)) was “decrease in EGFP/EGFP-DHFR”, the “C-to-U editing of the m^6A sensor sequence” value (m^6A sensor sequence; METTL3 degron cells, auxin (FIG. 3E)) was “Editing is reduced” and the “m^6A sensor sequence methylation, RT-qPCR” value [3] was “decreased m^6A”. The “m^6A in purified mRNA, mass spectrometry” value ([4]; METTL3 degron cells, auxin-treated (FIG. 3A)) was “decrease in m^6A” and the “m^6A reporter mRNA expression, RT-qPCR” value (m^6A reporter mRNA; METTL3 degron cells with and without auxin (FIG. 3G)) was “no significant difference”.

In the case of `C[C@@H]1C[C@@H]([C@H](O)CC2CC(=O)NC(=O)C2)C(=O)[C@@H](C)C1` [cycloheximide], the “m^6A reporter mRNA levels” value (m^6A reporter mRNA; HEK293T with GEMS, cycloheximide 0-120 minutes (FIG. 3I)) is reported as “no effect”.

For STM2457, the “EGFP fluorescence from the GEMS system” value ([1]; HEK293T, 30 μM STM2457, 24 h (FIG. 5A)) was “reduced”, the “EGFP fluorescence intensity, quantitative microscopy” value ([1]; HEK293T, 30 μM STM2457, EGFP normalized to DsRed (FIG. 5B)) was “significant reduction” and the “m^6A-coupled EGFP fluorescence” value ([1]; HEK293T, 10 or 30 μM STM2457, 24 h, DsRed internal control (FIG. 5E)) was “increased depletion”. The “EGFP signal, GEMS with EGFP-PEST” value ([1]; HEK293T, 10 or 30 μM STM2457, GEMS-EGFP-PEST, compared to GEMS-EGFP (FIG. 5L)) was “greater depletion at lower doses”, the “EGFP fluorescence / GEMS activity activated by dCas13-GEMS” value ([1]; HEK293T, STM2457 for 16 hours, then dCas13-GEMS and gRNAs (FIG. 8F)) was “abolished; also recorded: decreased” and the “EGFP/EGFP-DHFR ratio, densitometry” value ([2]; HEK293T, 30 μM STM2457, 24 h (FIG. 5D)) was “reduced EGFP/EGFP-DHFR ratio”. The “production of EGFP protein, western blot” value ([2]; HEK293T, 10 or 30 μM STM2457 (FIG. 5F)) was “decreased production of EGFP protein with increasing doses”, the “EGFP protein, western blot” value ([2]; HEK293T, STM2457-treated (FIG. 5C)) was “decreased EGFP protein” and the “production of EGFP protein, western blot, GEMS with EGFP-PEST” value ([2]; HEK293T, increasing doses of STM2457 (FIG. 5M)) was “decreased production of EGFP protein with increasing doses”. For the same molecule, the “C-to-U editing of the m^6A sensor sequence” value (m^6A sensor sequence; HEK293T, 30 μM STM2457, 24 h (FIG. 5J)) was “reduced C-to-U editing”, the “editing of the m^6A sensor sequence” value (m^6A sensor sequence; HEK293T, 10 or 30 μM STM2457 (FIG. 5G)) was “decreased editing with increasing amounts” and the “editing of the m^6A sensor sequence, GEMS with EGFP-PEST” value (m^6A sensor sequence; HEK293T, increasing amounts of STM2457 (FIG. 5N)) was “decreased editing with increasing amounts”. For the same molecule, the “m^6A in purified mRNA, mass spectrometry” value ([4]; HEK293T, STM2457 treatment (FIG. 5H)) was “depletion of m^6A”, the “abundance of the m^6A reporter mRNA” value (m^6A reporter mRNA; HEK293T, 30 μM STM2457 or DMSO (FIG. 5I)) was “no significant difference” and the “SOCS2 mRNA expression, RT-qPCR” value (Huh-7 cells) was “dose-dependent increase”. The “proliferation and colony formation” value (MOLM-13 cells) was “reduced proliferation and colony formation”.

From US20240207446A1, “M6A-COUPLED EFFECTOR PROTEIN EXPRESSION SYSTEM AND METHODS OF MAKING AND USING SAME” (Duke University, priority 2022, published 2024)
